The text below walks through data of ChEMBL document CHEMBL5316330, “Design of an Ultralow Molecular Weight Heparin That Resists Heparanase Biodegradation” (J Med Chem, 2023).

Each structure is given as a SMILES string. Activity calls are given as the source filed them. The rule behind the calls is not given here.

Usually IC50 stands for the concentration needed to halve the response being measured. A high value points to lower potency.

The nature of data set [1]: Stability of compound assessed as heparanase-mediated compound degradation by measuring retention time at 20 ug incubated overnight by LC-MS analysis (reference value: 10 mins). The class given is physicochemical. Particulars: dose 20 µg.
Data set [2] addresses T1, Coagulation factor X (Homo sapiens, UniProt P00742). Put plainly: Inhibition of human factor Xa using S-2765 as substrate preincubated with antithrombin for 3 mins followed by incubation with factor Xa for 2 mins and further incubated with substrate for 5 mins by absorbance based assay.
Data set [3] has as its target T1, Coagulation factor X. Put plainly: Potency index, ratio of Enoxaparin IC50 to test compound IC50 for factor Xa (unknown origin) by ACTICHROME heparin assay.
The subject of data set [4] is Mus musculus. Put plainly: Anticoagulant activity in C57BL/6 mouse model of non-occlusive venous thrombosis assessed as inhibition of factor Xa in plasma at 12 ug/g, sc treated for 1 hr prior to electrolytic injury and 24 hrs after injury. The class given is functional. Particulars: dose 12 µg/g, time 25 hrs.
Data set [5] has as its system Mus musculus. Put plainly: Anticoagulant activity in C57BL/6 mouse model of non-occlusive venous thrombosis assessed as average IVC weight at 4 ug/g, sc treated for 4 hrs prior to electrolytic injury and 24 hrs after injury (reference value: 31.5 +/- 2.3 mg). The class given is functional. Particulars: dose 4 µg/g, time 28 hrs.
In data set [6] the test system is Mus musculus. As to the kind of experiment: Anticoagulant activity in C57BL/6 mouse model of non-occlusive venous thrombosis assessed as average IVC weight at 12 ug/g, sc treated for 1 hr prior to electrolytic injury and 24 hrs after injury (reference value: 31.5 +/- 2.3 mg). The class given is functional. Particulars: dose 12 µg/g, time 25 hrs.
Data set [7] concerns Mus musculus. As to the kind of experiment: Anticoagulant activity in C57BL/6 mouse model of non-occlusive venous thrombosis assessed as average bleeding time at 12 ug/g, sc treated for 1 hr prior to electrolytic injury and 24 hrs after injury (reference value: 81 +/- 3 mg). The class given is functional. Particulars: dose 12 µg/g, time 25 hrs.
Data set [8] can be described thus: Stability of compound assessed as heparanase-mediated compound degradation by measuring retention time at 20 ug incubated overnight by LC-MS analysis (reference value: 17 mins). It is filed as physicochemical. Particulars: dose 20 µg.
Data set [9] concerns the target T1, Coagulation factor X. As to the kind of experiment: Inhibition of human factor Xa using S-2765 as substrate at 7 to 3600 ng/ml preincubated with antithrombin for 3 mins followed by incubation with factor Xa for 2 mins and further incubated with substrate for 5 mins by absorbance based assay. The conditions noted are these: dose 7-3600 ng/ml, time 10.0 min.

T1 sequence (P00742 41-179 limits assumed): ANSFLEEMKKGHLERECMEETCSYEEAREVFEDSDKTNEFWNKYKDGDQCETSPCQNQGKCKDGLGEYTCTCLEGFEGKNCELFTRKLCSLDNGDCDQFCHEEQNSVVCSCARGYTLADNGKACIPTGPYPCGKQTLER
T1 sequence (P00742 235-488 limits assumed): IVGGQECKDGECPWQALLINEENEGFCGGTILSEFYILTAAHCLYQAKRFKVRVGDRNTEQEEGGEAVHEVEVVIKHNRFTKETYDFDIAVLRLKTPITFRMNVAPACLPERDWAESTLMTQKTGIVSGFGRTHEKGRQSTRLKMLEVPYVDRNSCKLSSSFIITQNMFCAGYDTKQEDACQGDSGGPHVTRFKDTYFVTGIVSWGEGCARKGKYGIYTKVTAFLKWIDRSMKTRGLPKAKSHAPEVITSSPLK

On to `O=C(O)[C@H]1O[C@@H](O[C@H]2[C@H](O)[C@@H](NS(=O)(=O)O)[C@@H](O[C@@H]3[C@H](O)[C@@H](OS(=O)(=O)O)[C@H](O[C@H]4[C@H](OS(=O)(=O)O)[C@@H](NS(=O)(=O)O)[C@@H](O[C@H]5[C@H](O)[C@@H](OS(=O)(=O)O)[C@H](O[C@@H]6[C@H](O)[C@@H](NS(=O)(=O)O)[C@@H](O[C@H]7[C@H](O)[C@@H](O)[C@H](Oc8ccc([N+](=O)[O-])cc8)O[C@@H]7C(=O)O)O[C@@H]6COS(=O)(=O)O)O[C@@H]5C(=O)O)O[C@@H]4COS(=O)(=O)O)O[C@H]3C(=O)O)O[C@@H]2COS(=O)(=O)O)[C@H](O)[C@@H](O)[C@@H]1O`, for which the Retention_time in [1] is 15 min. The compound also had an IC50 against Coagulation factor X [2] of 177 nM. Also, the fold change (FC) on Coagulation factor X [3] came out at 3. For the same compound, the Activity in the data set with Mus musculus [4] was determined as 0.55 IU/ml; in the data set on Mus musculus [5] it was 13.9 mg; in the data set with Mus musculus [6], 18.8 mg; in the data set on Mus musculus [7], 143 mg.
In the case of `O=C(O)[C@H]1O[C@@H](Oc2ccc([N+](=O)[O-])cc2)[C@H](O)[C@@H](O)[C@@H]1O[C@H]1O[C@H](COS(=O)(=O)O)[C@@H](O[C@@H]2O[C@@H](C(=O)O)[C@H](O[C@H]3O[C@H](COS(=O)(=O)O)[C@@H](O[C@@H]4O[C@H](C(=O)O)[C@@H](O[C@H]5O[C@H](COS(=O)(=O)O)[C@@H](O)[C@H](O)[C@H]5NS(=O)(=O)O)[C@H](O)[C@H]4O)[C@H](OS(=O)(=O)O)[C@H]3NS(=O)(=O)O)[C@H](O)[C@H]2OS(=O)(=O)O)[C@H](O)[C@H]1NS(=O)(=O)O`, the Retention_time in data set [8] is 22 min. For the same compound, the inhibition result on Coagulation factor X [9] is “inactive”.
